Tested on: K12877-001-R-J1-PDC complex spheroid viability
Experiment: Anticancer human tumor K12877-001-R-J1-PDC patient-derived lung adenocarcinoma cell line growth inhibition [RAS]
Settings: for viability, T/C: stronger effect = lower value
Procedure, shortened: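 Agents were tested in combination matrices in half-log decrements from a top concentration at or near clinical Cmax (10 microM if undetermined). Targets were multi-cell spheroids of tumour lines plus HUVEC and MSC stromal cells.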

[1] = curve of first compound, second compound 0.000949 µM
[2] = curve of first compound, second compound 0.003 µM
[3] = curve of first compound, second compound 0.00949 µM
[4] = curve of first compound, second compound 0.03 µM
[5] = curve of first compound, second compound 0.0949 µM
[6] = curve of first compound, second compound 0.3 µM
[7] = second compound 0.000949 µM, first compound 0.00316 µM
[8] = second compound 0.000949 µM, first compound 0.01 µM
[9] = second compound 0.000949 µM, first compound 0.0316 µM
[10] = second compound 0.000949 µM, first compound 0.1 µM
[11] = second compound 0.000949 µM, first compound 0.316 µM
[12] = second compound 0.000949 µM, first compound 1 µM
[13] = second compound 0.003 µM, first compound 0.00316 µM
[14] = second compound 0.003 µM, first compound 0.01 µM
[15] = second compound 0.003 µM, first compound 0.0316 µM
[16] = second compound 0.003 µM, first compound 0.1 µM
[17] = second compound 0.003 µM, first compound 0.316 µM
[18] = second compound 0.003 µM, first compound 1 µM
[19] = second compound 0.00949 µM, first compound 0.00316 µM
[20] = second compound 0.00949 µM, first compound 0.01 µM
[21] = second compound 0.00949 µM, first compound 0.0316 µM
[22] = second compound 0.00949 µM, first compound 0.1 µM
[23] = second compound 0.00949 µM, first compound 0.316 µM
[24] = second compound 0.00949 µM, first compound 1 µM
[25] = second compound 0.03 µM, first compound 0.00316 µM
[26] = second compound 0.03 µM, first compound 0.01 µM
[27] = second compound 0.03 µM, first compound 0.0316 µM
[28] = second compound 0.03 µM, first compound 0.1 µM
[29] = second compound 0.03 µM, first compound 0.316 µM
[30] = second compound 0.03 µM, first compound 1 µM
[31] = second compound 0.0949 µM, first compound 0.00316 µM
[32] = second compound 0.0949 µM, first compound 0.01 µM
[33] = second compound 0.0949 µM, first compound 0.0316 µM
[34] = second compound 0.0949 µM, first compound 0.1 µM
[35] = second compound 0.0949 µM, first compound 0.316 µM
[36] = second compound 0.0949 µM, first compound 1 µM
[37] = second compound 0.3 µM, first compound 0.00316 µM
[38] = second compound 0.3 µM, first compound 0.01 µM
[39] = second compound 0.3 µM, first compound 0.0316 µM
[40] = second compound 0.3 µM, first compound 0.1 µM
[41] = second compound 0.3 µM, first compound 0.316 µM
[42] = second compound 0.3 µM, first compound 1 µM
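Further: spheroids exposed to agents for one week before readout.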
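Wherever viability, T/C is given: tumour cells co-cultured with HUVEC and mesenchymal stem cells in spheroids.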

Compound `C=CC(=O)Nc1cc(Nc2nccc(-c3cn(C)c4ccccc34)n2)c(OC)cc1N(C)CCN(C)C` + CCn1c(-c2cccnc2C(C)OC)c2c3cc(ccc31)N1CCOC(CC(NC(=O)C(C(C)C)N(C)C(=O)C3(F)CCN(C(=O)C#CC(C)(C)N(C)C)CC3)C(=O)N3CCCC(N3)C(=O)OCC(C)(C)C2)C1 has an IC50 [1] of over 1000 nM, an IC50 [2] of over 1000 nM and an IC50 [3] of over 1000 nM. The IC50 [4] was over 1000 nM, the IC50 [5] was over 1000 nM and the IC50 [6] was over 1000 nM. It also gave a viability, T/C [7] of 90.4%, a viability, T/C [8] of 75.9% and a viability, T/C [9] of 85.4%. It also gave a viability, T/C [10] of 78.5%, a viability, T/C [11] of 78% and a viability, T/C [12] of 69.8%. The viability, T/C [13] was 78.2%, the viability, T/C [14] was 75.2% and the viability, T/C [15] was 69.3%. It also gave a viability, T/C [16] of 70.5%, a viability, T/C [17] of 74.3% and a viability, T/C [18] of 70.3%. For the same compound, the viability, T/C [19] was 82.3%, the viability, T/C [20] was 65% and the viability, T/C [21] was 75.1%. The viability, T/C [22] was 71%, the viability, T/C [23] was 71.6% and the viability, T/C [24] was 62.7%. The viability, T/C [25] was 80.5%, the viability, T/C [26] was 73.2% and the viability, T/C [27] was 78.7%. For the same compound, the viability, T/C [28] was 79%, the viability, T/C [29] was 64.5% and the viability, T/C [30] was 65%. The viability, T/C [31] was 67.2%, the viability, T/C [32] was 72.7% and the viability, T/C [33] was 74%. The viability, T/C [34] was 69.5%, the viability, T/C [35] was 63.5% and the viability, T/C [36] was 48.5%. It also gave a viability, T/C [37] of 69.8%, a viability, T/C [38] of 67% and a viability, T/C [39] of 71.2%. It also gave a viability, T/C [40] of 70.2%, a viability, T/C [41] of 58.7% and a viability, T/C [42] of 52.8%.
With `CCn1c(-c2cc(N3CCN(C)CC3)cnc2C(C)OC)c2c3cc(ccc31)-c1csc(n1)CC(NC(=O)C1CC1C)C(=O)N1CCCC(N1)C(=O)OCC(C)(C)C2` (centres undefined) the viability, T/C (compound 0.000949 µM) was 81.8% [middle of 8 runs], the viability, T/C (compound 0.003 µM) was 72.1% [middle of 8 runs] and the viability, T/C (compound 0.00949 µM) was 67.8% [middle of 8 runs]. The viability, T/C (compound 0.0949 µM) was 107% [middle of 8 runs], the viability, T/C (compound 0.3 µM) was 97.1% [middle of 7 runs] and the IC50 (compound alone, run of 08/26/2024) was over 300 nM.
Work on `Nc1ccn(C2OC(CO)C(O)C2(F)F)c(=O)n1` (centres undefined) + CCn1c(-c2cc(N3CCN(C)CC3)cnc2C(C)OC)c2c3cc(ccc31)-c1csc(n1)CC(NC(=O)C1CC1C)C(=O)N1CCCC(N1)C(=O)OCC(C)(C)C2 yielded an IC50 [1] of 13.9 nM, an IC50 [2] of 13.4 nM and an IC50 [3] of 11.6 nM. For the same compound, the IC50 [4] was 17.5 nM, the IC50 [5] was 16.8 nM and the IC50 [6] was 17.4 nM. It also gave a viability, T/C [7] of 76.3%, a viability, T/C [8] of 66.7% and a viability, T/C [9] of 8.22%. For the same compound, the viability, T/C [10] was 4.35%, the viability, T/C [11] was 4.92% and the viability, T/C [12] was 5.37%. The viability, T/C [13] was 62.2%, the viability, T/C [14] was 64% and the viability, T/C [15] was 10.9%. It also gave a viability, T/C [16] of 4.55%, a viability, T/C [17] of 4.11% and a viability, T/C [18] of 4.17%. For the same compound, the viability, T/C [19] was 59.7%, the viability, T/C [20] was 55.8% and the viability, T/C [21] was 9.86%. The viability, T/C [22] was 3.95%, the viability, T/C [23] was 4.84% and the viability, T/C [24] was 4.74%. The viability, T/C [25] was 93.2%, the viability, T/C [26] was 86.8% and the viability, T/C [27] was 10.9%. The viability, T/C [28] was 4.44%, the viability, T/C [29] was 4.77% and the viability, T/C [30] was 3.54%. It also gave a viability, T/C [31] of 103%, a viability, T/C [32] of 80.9% and a viability, T/C [33] of 12.4%. It also gave a viability, T/C [34] of 3.68%, a viability, T/C [35] of 3.46% and a viability, T/C [36] of 4.36%. The viability, T/C [37] was 84.6%, the viability, T/C [38] was 80.6% and the viability, T/C [39] was 17%. The viability, T/C [40] was 2.67%, the viability, T/C [41] was 3.61% and the viability, T/C [42] was 2.74%.
For `CC1(O)CCCC1n1c(=O)c(C(F)F)cc2cnc(NC3CCN(S(C)(=O)=O)CC3)nc21` (centres undefined), the viability, T/C (compound 0.0316 µM) was 99.7% [middle of 4 runs] and the viability, T/C (compound 10 µM) was 3.53% [middle of 4 runs].
With `CC(Nc1ccc2c(c1)OCCn1cc(N3C(=O)OCC3C(F)F)nc1-2)C(N)=O` (centres undefined) the viability, T/C (compound 0.0316 µM) was 91.3% [middle of 4 runs] and the viability, T/C (compound 1 µM) was 69.9% [middle of 4 runs].

From PubChem BioAssay AID2060894 (Molecular Pharmacology Branch, DTP, NCI, 2025)
